# Results published in paper PMC8016481, “Tachykinin signaling inhibits task-specific behavioral responsiveness in honeybee workers” (eLife, 2021).
# Entries after “also recorded” stand apart in the source; their conditions may differ.
# Assays:
# [1] = test system: TRPR
# [2] = test system: worker bees (Apis mellifera ligustica); assay: Proboscis extension response (PER) after TRP2 injection; format: in vivo; settings: for reduction of SRS vs ddH2O, Z: Mann-Whitney U test; for PER ratio: 1 μl of 1 μg/μl into head, 1 hr after injection
# Description: To investigate the sucrose responsiveness, bees were assayed using an ascending order of sucrose concentrations: 0.1%, 0.3%, 1%, 3%, 10%, and 30% (weight/weight). A small droplet of each solution was touched to the bees’ antennae for 3 s and the extension of the proboscis was monitored during this time. The interval between each sucrose solution trial was 5 min to exclude sensitization or habituation effects. The total number of PER responses after stimulation with the six different sucrose concentrations was combined into an SRS of a bee ([Pankiw et al., 2001]; [Scheiner et al., 2002]; [Scheiner et al., 2003]). The SRSs of the three behavioral phenotypes in the same species were compared using Kruskal-Wallis tests with Bonferroni correction. Pairwise Mann-Whitney U tests were used for comparing the same phenotype from two honeybee species. The sucrose responsiveness for specific sucrose concentrations was further compared between different groups with independent chi-square tests.
# To test pollen stimulation, fresh pollen loads that had been removed from the leg of randomly selected PFs of the test group were used: AML were tested with pollen collected by AML foragers and ACC with pollen collected by ACC foragers. These loads contained a mixture of different pollen, predominated by black locust (R. pseudoacacia). As a control for mechanical stimulation, each bee had both antennae first touched with a piece of filter paper and spontaneous responders were excluded. Subsequently, both antennae of each bee were gently touched with a pollen load and PER responses were recorded. The pollen responsiveness was compared with independent chi-square tests between different groups.
# To test responsiveness to larva, 1-day-old larvae from each honeybee species were collected, briefly rinsed in distilled water to remove royal jelly residue and dried on a filter paper. As before, both antennae of bees were touched with a piece of filter paper first and spontaneous responders were excluded, then PERs in response to a larva touching the antennae were recorded. The responsiveness to larvae was compared with independent chi-square tests between different groups. Statistical analyses were conducted using SPSS Statistics 20.0 (IBM, USA).
# To confirm the function of TRP on task-specific responsiveness, NBs, PFs, and NFs of AML were injected with TRP2 and tested for their PER response to sucrose solution, pollen, and larva. About 150 bees of each behavioral phenotype were collected in the morning, then harnessed, fed and placed in a dark incubator as described in 'Comparative PER experiments' section. […] Bees injected with ddH2O were used as control. All injected bees were put back to the dark incubator and 1 hr after injection all surviving bees were assayed for their PER to stimulations of sucrose solution, pollen, and larva as described in 'Comparative PER experiments' section. Each experiment was performed with a new set of bees containing about 55 individuals per experimental and control group.
# The sucrose responsiveness was further compared between different groups at each specific sucrose concentration with independent chi-square tests. […] All statistical analyses were performed with SPSS Statistics 20.0 (IBM).
# [3] = test system: honeybee TRPR; assay: Competitive binding of TRPs to TRPR in Sf21 cells (displacement of TAMRA-TRP2/TAMRA-TRP3); parameters: species or system Apis mellifera
# [4] = test system: TRPR; remark: listed apart in the source
# [5] = test system: TRP2-mediated cAMP accumulation; assay: Effect of PTX, CTX, YM-254890 and H89 on TRP2-mediated cAMP accumulation, HEK293 cells expressing TRPR; format: cell-based, Homo sapiens; settings: TRP2, Control (no inhibitor)
# [6] = test system: TRPR; remark: listed apart in the source
# [7] = test system: honeybee TRPR; assay: Competitive binding of TRPs to TRPR in HEK293 cells (displacement of TAMRA-TRP2/TAMRA-TRP3); parameters: species or system Apis mellifera; settings: for competitive binding (residual TAMRA-TRP binding): HEK293
substance,measurement,setting,value
"ALMGFQGVRa [TRP2, honeybee tachykinin-related peptide 2, synthesized by SynPeptide]","cAMP and Ca2+ signaling, TRP2 compared with TRP3",[1],induced higher cAMP and Ca^2+ signaling than TRP3
same,increase of cAMP levels,[1],more than 10 fold
same,"effect on larva responsiveness vs ddH2O, χ^2","[2]; NBs, chi-square test",6.1
same,effect on larva responsiveness,"[2]; NBs, vs ddH2O",significantly affected the responsiveness of NBs
same,effect on sucrose responsiveness,"[2]; NBs, vs ddH2O",did not show significant responsiveness changes to sucrose
same,effect on larva responsiveness,"[2]; NFs and PFs, vs ddH2O",not NFs or PFs
same,"reduction of SRS vs ddH2O, Z",[2]; NFs,2.3
same,effect on sucrose responsiveness,"[2]; NFs, vs ddH2O",significantly reducing PER responses to all sucrose concentrations except 0.1%
same,"reduction of SRS vs ddH2O, Z",[2]; PFs,2.2
same,"decrease of pollen responsiveness vs ddH2O, χ^2","[2]; PFs, chi-square test",6.7
same,effect on pollen responsiveness,"[2]; PFs, vs ddH2O",significantly decreased responsiveness to pollen loads
same,effect on sucrose responsiveness,"[2]; PFs, vs ddH2O",significantly reducing PER responses to all sucrose concentrations used
same,PER ratio,"[2]; nectar foragers, larva stimulus",11.54%
same,PER ratio,"[2]; nectar foragers, pollen stimulus",15.38%
same,PER ratio,"[2]; nectar foragers, sucrose 0.1%",10.34%
same,PER ratio,"[2]; nectar foragers, sucrose 0.3%",10.34%
same,PER ratio,"[2]; nectar foragers, sucrose 1.0%",12.07%
same,PER ratio,"[2]; nectar foragers, sucrose 3.0%",13.79%
same,PER ratio,"[2]; nectar foragers, sucrose 10.0%",20.69%
same,PER ratio,"[2]; nectar foragers, sucrose 30.0%",25.86%
same,PER ratio,"[2]; nurse bees, larva stimulus",18.18%
same,PER ratio,"[2]; nurse bees, pollen stimulus",12.73%
same,PER ratio,"[2]; nurse bees, sucrose 0.1%",15.38%
same,PER ratio,"[2]; nurse bees, sucrose 0.3%",19.23%
same,PER ratio,"[2]; nurse bees, sucrose 1.0%",25.00%
same,PER ratio,"[2]; nurse bees, sucrose 3.0%",30.77%
same,PER ratio,"[2]; nurse bees, sucrose 10.0%",40.38%
same,PER ratio,"[2]; nurse bees, sucrose 30.0%",48.08%
same,PER ratio,"[2]; pollen foragers, larva stimulus",22.64%
same,PER ratio,"[2]; pollen foragers, pollen stimulus",16.98%
same,PER ratio,"[2]; pollen foragers, sucrose 0.1%",16.98%
same,PER ratio,"[2]; pollen foragers, sucrose 0.3%",20.75%
same,PER ratio,"[2]; pollen foragers, sucrose 1.0%",22.64%
same,PER ratio,"[2]; pollen foragers, sucrose 3.0%",28.30%
same,PER ratio,"[2]; pollen foragers, sucrose 10.0%",32.08%
same,PER ratio,"[2]; pollen foragers, sucrose 30.0%",47.17%
same,competitive binding,"[3]; Log (M) -4, replicate 1",26.6823
same,competitive binding,"[3]; Log (M) -4, replicate 2",24.9306
same,competitive binding,"[3]; Log (M) -4, replicate 3",19.6578
same,competitive binding,"[3]; Log (M) -5, replicate 1",24.5134
same,competitive binding,"[3]; Log (M) -5, replicate 2",25.2301
same,competitive binding,"[3]; Log (M) -5, replicate 3",28.7532
same,competitive binding,"[3]; Log (M) -6, replicate 1",31.3191
same,competitive binding,"[3]; Log (M) -6, replicate 2",30.3643
same,competitive binding,"[3]; Log (M) -6, replicate 3",34.3614
same,competitive binding,"[3]; Log (M) -7, replicate 1",40.7138
same,competitive binding,"[3]; Log (M) -7, replicate 2",35.6042
same,competitive binding,"[3]; Log (M) -7, replicate 3",42.4738
same,competitive binding,"[3]; Log (M) -8, replicate 1",59.0125
same,competitive binding,"[3]; Log (M) -8, replicate 2",64.4899
same,competitive binding,"[3]; Log (M) -8, replicate 3",60.9813
same,competitive binding,"[3]; Log (M) -9, replicate 1",79.5758
same,competitive binding,"[3]; Log (M) -9, replicate 2",73.4731
same,competitive binding,"[3]; Log (M) -9, replicate 3",72.5477
same,competitive binding,"[3]; Log (M) -10, replicate 1",80.4598
same,competitive binding,"[3]; Log (M) -10, replicate 2",86.2073
same,competitive binding,"[3]; Log (M) -10, replicate 3",87.5948
same,competitive binding,"[3]; Log (M) -11, replicate 1",96.7722
same,competitive binding,"[3]; Log (M) -11, replicate 2",92.2369
same,competitive binding,"[3]; Log (M) -11, replicate 3",91.4817
same,competitive binding,"[3]; Log (M) -12, replicate 1",92.3887
same,competitive binding,"[3]; Log (M) -12, replicate 2",98.2368
same,competitive binding,"[3]; Log (M) -12, replicate 3",98.3115
same,time by which ERK phosphorylation is near basal levels,[4],≤ 90 min
same,time of maximal ERK phosphorylation,[4],2 min
same,cAMP accumulation,"[5]; Suppl.3A, replicate 1",9.157
same,cAMP accumulation,"[5]; Suppl.3A, replicate 2",10.923
same,cAMP accumulation,"[5]; Suppl.3A, replicate 3",10.206
same,cAMP accumulation,"[5]; Suppl.3B, replicate 1",86.752
same,cAMP accumulation,"[5]; Suppl.3B, replicate 2",90.385
same,cAMP accumulation,"[5]; Suppl.3B, replicate 3",95.777
same,intracellular Ca2+ levels,[6],rose sharply
same,competitive binding (residual TAMRA-TRP binding),"[7]; Log (M) -4, replicate 1",6.8655
same,competitive binding (residual TAMRA-TRP binding),"[7]; Log (M) -4, replicate 2",5.4421
same,competitive binding (residual TAMRA-TRP binding),"[7]; Log (M) -4, replicate 3",6.7148
same,competitive binding (residual TAMRA-TRP binding),"[7]; Log (M) -5, replicate 1",5.4278
same,competitive binding (residual TAMRA-TRP binding),"[7]; Log (M) -5, replicate 2",4.8584
same,competitive binding (residual TAMRA-TRP binding),"[7]; Log (M) -5, replicate 3",7.2943
same,competitive binding (residual TAMRA-TRP binding),"[7]; Log (M) -6, replicate 1",7.7659
same,competitive binding (residual TAMRA-TRP binding),"[7]; Log (M) -6, replicate 2",5.3036
same,competitive binding (residual TAMRA-TRP binding),"[7]; Log (M) -6, replicate 3",8.6345
same,competitive binding (residual TAMRA-TRP binding),"[7]; Log (M) -7, replicate 1",18.9281
same,competitive binding (residual TAMRA-TRP binding),"[7]; Log (M) -7, replicate 2",12.1701
same,competitive binding (residual TAMRA-TRP binding),"[7]; Log (M) -7, replicate 3",11.2282
same,competitive binding (residual TAMRA-TRP binding),"[7]; Log (M) -8, replicate 1",39.3417
same,competitive binding (residual TAMRA-TRP binding),"[7]; Log (M) -8, replicate 2",38.9933
same,competitive binding (residual TAMRA-TRP binding),"[7]; Log (M) -8, replicate 3",33.9876
same,competitive binding (residual TAMRA-TRP binding),"[7]; Log (M) -9, replicate 1",62.0505
same,competitive binding (residual TAMRA-TRP binding),"[7]; Log (M) -9, replicate 2",61.6487
same,competitive binding (residual TAMRA-TRP binding),"[7]; Log (M) -9, replicate 3",64.6985
same,competitive binding (residual TAMRA-TRP binding),"[7]; Log (M) -10, replicate 1",72.1434
same,competitive binding (residual TAMRA-TRP binding),"[7]; Log (M) -10, replicate 2",80.3662
same,competitive binding (residual TAMRA-TRP binding),"[7]; Log (M) -10, replicate 3",73.4408
same,competitive binding (residual TAMRA-TRP binding),"[7]; Log (M) -11, replicate 1",96.7383
same,competitive binding (residual TAMRA-TRP binding),"[7]; Log (M) -11, replicate 2",91.1557
same,competitive binding (residual TAMRA-TRP binding),"[7]; Log (M) -11, replicate 3",93.6625
same,competitive binding (residual TAMRA-TRP binding),"[7]; Log (M) -12, replicate 1",92.6094
same,competitive binding (residual TAMRA-TRP binding),"[7]; Log (M) -12, replicate 2",98.3333
same,competitive binding (residual TAMRA-TRP binding),"[7]; Log (M) -12, replicate 3",97.4974
same,"affinity of TRPR, TRP2 compared with TRP3","[7]; competitive binding assays, HEK293 and Sf21 cells",stronger binding affinity to the receptor TRPR than TRP3; also recorded: higher for TRP2 than for TRP3; also recorded: higher affinity to TRPR
